Experimental data from publication PMC4468608, “A distinct p53 target gene set predicts for response to the selective p53–HDM2 inhibitor NVP-CGM097” (eLife, 2015).

Test system: cell lines from the Cancer Cell Line Encyclopedia (CCLE)
Assay: High-throughput cell viability assay, CCLE cell line panel (n = 356)
Assay type: cell-based, human
Procedure: Cell lines were partitioned into sensitive and insensitive groups based on compound potency (IC50). […] All other cell lines were obtained from ATCC (American Type Culture Collection), DSMZ (Deutsche Sammlung von Mikroorganismen und Zellkulturen), and HSRRB (Health Science Research Resources Bank) and cultured in RPMI or Dulbecco's modified Eagle's medium plus 10% FBS (Invitrogen, Carlsbad, CA) at 37°C, 5% CO2.

[1] = PE/CA-PJ34 (clone C12), TP53 MUT
[2] = cell line A172, central_nervous_system, TP53 WT
[3] = cell line BICR 31, upper_aerodigestive_tract, TP53 MUT
[4] = cell line CAL-85-1, breast, TP53 MUT
[5] = cell line CAMA-1, breast, TP53 MUT
[6] = cell line CCK-81, large_intestine, TP53 MUT
[7] = cell line COV504, ovary, TP53 MUT
[8] = cell line Capan-2, pancreas, TP53 WT
[9] = cell line ES-2, ovary, TP53 MUT
[10] = cell line ESS-1, endometrium, TP53 MUT
[11] = cell line HEC-108, endometrium, TP53 MUT
[12] = cell line HEC-265, endometrium, TP53 WT
[13] = cell line HSC-2, upper_aerodigestive_tract, TP53 MUT
[14] = cell line Hs 618.T, lung, TP53 WT
[15] = cell line Hs 888.T, bone, TP53 WT
[16] = cell line Hs 944.T, skin, TP53 WT
[17] = cell line IM95, stomach, TP53 WT

COc1cc2c(cc1OC(C)C)[C@H](c1ccc(Cl)cc1)N(c1ccc(N(C)C[C@H]3CC[C@H](N4CCNC(=O)C4)CC3)cc1)C(=O)C2 [NVP-CFC218]
Amax (ONS-76, TP53 WT): -16.12% | sensitivity call (ONS-76, TP53 WT): insensitive (Sensitivity call for each compound was applied according to a cut-off of 4 µM for IC50 and -50% for Amax) | Amax (OV-90, TP53 MUT): -1.39% | sensitivity call (OV-90, TP53 MUT): insensitive (Sensitivity call for each compound was applied according to a cut-off of 4 µM for IC50 and -50% for Amax) | Amax (P3HR-1, TP53 MUT): -48.91% | sensitivity call (P3HR-1, TP53 MUT): insensitive (Sensitivity call for each compound was applied according to a cut-off of 4 µM for IC50 and -50% for Amax) | Amax (P31/FUJ, TP53 MUT): 4.23% | sensitivity call (P31/FUJ, TP53 MUT): insensitive (Sensitivity call for each compound was applied according to a cut-off of 4 µM for IC50 and -50% for Amax) | Amax (PA-TU-8902, TP53 MUT): 0.96% | sensitivity call (PA-TU-8902, TP53 MUT): insensitive (Sensitivity call for each compound was applied according to a cut-off of 4 µM for IC50 and -50% for Amax) | Amax [1]: 1.01% | sensitivity call [1]: insensitive (Sensitivity call for each compound was applied according to a cut-off of 4 µM for IC50 and -50% for Amax) | Amax (PK-45H, TP53 WT): -18.84% | sensitivity call (PK-45H, TP53 WT): insensitive (Sensitivity call for each compound was applied according to a cut-off of 4 µM for IC50 and -50% for Amax) | Amax (PL-21, TP53 MUT): -37.95% | sensitivity call (PL-21, TP53 MUT): insensitive (Sensitivity call for each compound was applied according to a cut-off of 4 µM for IC50 and -50% for Amax) | Amax (QGP-1, TP53 WT): 6.30% | sensitivity call (QGP-1, TP53 WT): insensitive (Sensitivity call for each compound was applied according to a cut-off of 4 µM for IC50 and -50% for Amax) | Amax (Raji, TP53 MUT): -0.41% | sensitivity call (Raji, TP53 MUT): insensitive (Sensitivity call for each compound was applied according to a cut-off of 4 µM for IC50 and -50% for Amax) | Amax (SCC-4, TP53 MUT): -11.24% | sensitivity call (SCC-4, TP53 MUT): insensitive (Sensitivity call for each compound was applied according to a cut-off of 4 µM for IC50 and -50% for Amax) | Amax (SCC-9, TP53 MUT): 10.57% | sensitivity call (SCC-9, TP53 MUT): insensitive (Sensitivity call for each compound was applied according to a cut-off of 4 µM for IC50 and -50% for Amax) | Amax (SK-N-FI, TP53 MUT): -7.80% | sensitivity call (SK-N-FI, TP53 MUT): insensitive (Sensitivity call for each compound was applied according to a cut-off of 4 µM for IC50 and -50% for Amax) | Amax (SNU-475, TP53 MUT): -7.74% | sensitivity call (SNU-475, TP53 MUT): insensitive (Sensitivity call for each compound was applied according to a cut-off of 4 µM for IC50 and -50% for Amax) | Amax (SU-DHL-8, TP53 MUT): 11.70% | sensitivity call (SU-DHL-8, TP53 MUT): insensitive (Sensitivity call for each compound was applied according to a cut-off of 4 µM for IC50 and -50% for Amax) | Amax (SW579, TP53 MUT): -2.22% | sensitivity call (SW579, TP53 MUT): insensitive (Sensitivity call for each compound was applied according to a cut-off of 4 µM for IC50 and -50% for Amax) | Amax (SW 1271, TP53 MUT): -7.26% | sensitivity call (SW 1271, TP53 MUT): insensitive (Sensitivity call for each compound was applied according to a cut-off of 4 µM for IC50 and -50% for Amax) | Amax (SW 1990, TP53 MUT): -0.73% | sensitivity call (SW 1990, TP53 MUT): insensitive (Sensitivity call for each compound was applied according to a cut-off of 4 µM for IC50 and -50% for Amax) | Amax (TE-1, TP53 MUT): -0.82% | sensitivity call (TE-1, TP53 MUT): insensitive (Sensitivity call for each compound was applied according to a cut-off of 4 µM for IC50 and -50% for Amax) | Amax (TE-5, TP53 MUT): 31.38% | sensitivity call (TE-5, TP53 MUT): insensitive (Sensitivity call for each compound was applied according to a cut-off of 4 µM for IC50 and -50% for Amax) | Amax (U-87 MG, TP53 WT): -45.86% | sensitivity call (U-87 MG, TP53 WT): insensitive (Sensitivity call for each compound was applied according to a cut-off of 4 µM for IC50 and -50% for Amax) | Amax (WM-266-4, TP53 WT): -75.96% | sensitivity call (WM-266-4, TP53 WT): sensitive (Sensitivity call for each compound was applied according to a cut-off of 4 µM for IC50 and -50% for Amax) | Amax (WM-983B, TP53 MUT): -25.79% | sensitivity call (WM-983B, TP53 MUT): insensitive (Sensitivity call for each compound was applied according to a cut-off of 4 µM for IC50 and -50% for Amax) | Amax (YKG1, TP53 MUT): -29.61% | sensitivity call (YKG1, TP53 MUT): insensitive (Sensitivity call for each compound was applied according to a cut-off of 4 µM for IC50 and -50% for Amax) | NVP- CFC218 Amax (%) [2]: -49.68% | NVP- CFC218 sensitivity call [2]: insensitive (Sensitivity call for each compound was applied according to a cut-off of 4 µM for IC50 and -50% for Amax) | NVP- CFC218 Amax (%) [3]: -33.34% | NVP- CFC218 sensitivity call [3]: insensitive (Sensitivity call for each compound was applied according to a cut-off of 4 µM for IC50 and -50% for Amax) | NVP- CFC218 Amax (%) (cell line C3A, liver, TP53 WT): -7.36% | NVP- CFC218 sensitivity call (cell line C3A, liver, TP53 WT): insensitive (Sensitivity call for each compound was applied according to a cut-off of 4 µM for IC50 and -50% for Amax) | NVP- CFC218 Amax (%) (cell line C32, skin, TP53 WT): -3.08% | NVP- CFC218 sensitivity call (cell line C32, skin, TP53 WT): insensitive (Sensitivity call for each compound was applied according to a cut-off of 4 µM for IC50 and -50% for Amax) | NVP- CFC218 Amax (%) [4]: -3.57% | NVP- CFC218 sensitivity call [4]: insensitive (Sensitivity call for each compound was applied according to a cut-off of 4 µM for IC50 and -50% for Amax) | NVP- CFC218 Amax (%) [5]: -26.17% | NVP- CFC218 sensitivity call [5]: insensitive (Sensitivity call for each compound was applied according to a cut-off of 4 µM for IC50 and -50% for Amax) | NVP- CFC218 Amax (%) [6]: 4.13% | NVP- CFC218 sensitivity call [6]: insensitive (Sensitivity call for each compound was applied according to a cut-off of 4 µM for IC50 and -50% for Amax) | NVP- CFC218 Amax (%) [7]: -21.97% | NVP- CFC218 sensitivity call [7]: insensitive (Sensitivity call for each compound was applied according to a cut-off of 4 µM for IC50 and -50% for Amax) | NVP- CFC218 Amax (%) [8]: -4.99% | NVP- CFC218 sensitivity call [8]: insensitive (Sensitivity call for each compound was applied according to a cut-off of 4 µM for IC50 and -50% for Amax) | NVP- CFC218 Amax (%) [9]: -22.65% | NVP- CFC218 sensitivity call [9]: insensitive (Sensitivity call for each compound was applied according to a cut-off of 4 µM for IC50 and -50% for Amax) | NVP- CFC218 Amax (%) [10]: 0.05% | NVP- CFC218 sensitivity call [10]: insensitive (Sensitivity call for each compound was applied according to a cut-off of 4 µM for IC50 and -50% for Amax) | NVP- CFC218 Amax (%) [11]: -7.25% | NVP- CFC218 sensitivity call [11]: insensitive (Sensitivity call for each compound was applied according to a cut-off of 4 µM for IC50 and -50% for Amax) | NVP- CFC218 Amax (%) [12]: -37.19% | NVP- CFC218 sensitivity call [12]: insensitive (Sensitivity call for each compound was applied according to a cut-off of 4 µM for IC50 and -50% for Amax) | NVP- CFC218 Amax (%) [13]: 8.13% | NVP- CFC218 sensitivity call [13]: insensitive (Sensitivity call for each compound was applied according to a cut-off of 4 µM for IC50 and -50% for Amax) | NVP- CFC218 Amax (%) [14]: -49.34% | NVP- CFC218 sensitivity call [14]: insensitive (Sensitivity call for each compound was applied according to a cut-off of 4 µM for IC50 and -50% for Amax) | NVP- CFC218 Amax (%) [15]: -45.50% | NVP- CFC218 sensitivity call [15]: insensitive (Sensitivity call for each compound was applied according to a cut-off of 4 µM for IC50 and -50% for Amax) | NVP- CFC218 Amax (%) [16]: -32.86% | NVP- CFC218 sensitivity call [16]: insensitive (Sensitivity call for each compound was applied according to a cut-off of 4 µM for IC50 and -50% for Amax) | NVP- CFC218 Amax (%) [17]: 33.79% | NVP- CFC218 sensitivity call [17]: insensitive (Sensitivity call for each compound was applied according to a cut-off of 4 µM for IC50 and -50% for Amax) | NVP- CFC218 Amax (%) (cell line JHOS-2, ovary, TP53 MUT): -32.44%
